{"source": "paper PMC6158167", "about": "(Nature Communications, 2018)", "key": {"[1]": {"system": "ShHTL1–ShMAX2 interaction", "assay": "In vitro pull-down ShHTL1-ShMAX2", "assay_type": "binding, Striga hermonthica", "conditions": "50 μM ligand", "description": "Ni-NTA pull-down assays were performed with purified ShMAX2 or AtMAX2 as the bait and […]14, or GST-AtD14 as the prey. The molecular weight of the HTL/D14 proteins is nearly the same as that of ASK1; therefore, the HTL/D14 proteins were fused to GST, increasing their molecular weight for detection on SDS-PAGE gels. […] The protein complexes were then eluted with 100 μL of elution buffer containing 50 mM Bis-Tris, pH 6.8, 500 mM NaCl, and 500 mM imidazole and subjected to SDS-PAGE analysis. Samples of […] […] also subjected to western blotting after separation by SDS-PAGE. The proteins were transferred from the SDS-PAGE gel to a polyvinylidene fluoride (PVDF) membrane (Merck Millipore). […] Next, the membrane was incubated with anti-GST antibody as the primary antibody (71097-3; Novagen; diluted 1:10,000) at 25 °C for 1.5 h and then washed 3 times with TBST buffer. Anti-mouse antibody (32430; Thermo Scientific; diluted 1:4000) conjugated to horseradish peroxidase was used as the secondary antibody. After incubation with the secondary antibody at 25 °C for 1.5 h, the membrane was washed 3 times. For detection, SuperSignal West Femto Maximum Sensitivity Substrate (Thermo Scientific) was used as the chemiluminescence substrate and ImageQuant LAS 4000 mini (GE Healthcare) was used for imaging."}, "[2]": {"target": "T1, AtHTL (Arabidopsis thaliana, UniProt Q9SZU7)", "T1 sequence (Q9SZU7 1-270)": "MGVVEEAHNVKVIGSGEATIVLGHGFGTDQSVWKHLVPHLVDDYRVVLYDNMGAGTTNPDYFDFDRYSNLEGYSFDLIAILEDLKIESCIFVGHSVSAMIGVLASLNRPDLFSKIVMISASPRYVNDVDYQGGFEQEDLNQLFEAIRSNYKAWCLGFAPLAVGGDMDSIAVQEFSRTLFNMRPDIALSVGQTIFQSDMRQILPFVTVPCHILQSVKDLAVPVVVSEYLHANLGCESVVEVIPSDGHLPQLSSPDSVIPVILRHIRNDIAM", "assay": "ITC binding to AtHTL", "conditions": "3 mM KAR1 into 150 μM protein, 20 °C", "description": "(§1) The binding assays were performed using a MicroCal iTC200 isothermal titration calorimeter (GE Healthcare). Prior to the ITC experiments, concentrated ShD14, ShHTL1, ShHTL4, and ShHTL7 were exchanged into a buffer consisting of 20 mM HEPES (pH 8.0) and 150 mM NaCl to remove dithiothreitol and were then adjusted to a final concentration of 150 μM. The sample cell was filled with protein solution (204 μL). Nineteen consecutive 2.0-μL aliquots of 3 mM KAR1 (3-methyl-2H-furo [2,3-c] pyran-2-one) were injected into a prepared protein solution at 150 s intervals at 20 °C. The first injection volume was 0.4 μL, and the observed thermal peak was excluded from the data analysis. A negative control was obtained by titrating 3 mM KAR1 into the buffer (20 mM HEPES, pH 8.0, 150 mM NaCl) in the same manner. Data fitting was performed in “one set of sites” mode, and KD values were calculated using Origin software provided by MicroCal.\n(§2) Supplementary Figure 3. Binding analyses of ShHTLs and ShD14 with KAR1. The ITC\n(§3) assays were performed by adding 3 mM KAR1 to 150 μM ShHTL1 (a), ShHTL4 (b), ShHTL7\n(§4) (c), ShD14 (d) and AtHTL (e).\n(§5) ShHTL1 and AtHTL were fitted using the MicroCal origin software with the “one binding site”\n(§6) model. The ITC assays titrating KAR1 into ShHTL1 and AtHTL were repeated three times\n(§7) independently (data not shown)."}, "[3]": {"system": "ShHTL3 and ShMAX2", "assay": "In vitro pull-down ShHTL3-ShMAX2", "assay_type": "binding, Striga hermonthica", "conditions": "50 μM ligand", "description": "Ni-NTA pull-down assays were performed with purified ShMAX2 or AtMAX2 as the bait and […]14, or GST-AtD14 as the prey. The molecular weight of the HTL/D14 proteins is nearly the same as that of ASK1; therefore, the HTL/D14 proteins were fused to GST, increasing their molecular weight for detection on SDS-PAGE gels. […] The protein complexes were then eluted with 100 μL of elution buffer containing 50 mM Bis-Tris, pH 6.8, 500 mM NaCl, and 500 mM imidazole and subjected to SDS-PAGE analysis."}, "[4]": {"system": "ShD14", "assay": "ITC binding to ShD14", "parameters": "species or system Striga hermonthica", "conditions": "3 mM KAR1 into 150 μM protein", "description": "as §1, §2, §3, §4, §5, §6, §7"}, "[5]": {"target": "ShHTL3", "parameters": "method as in PMID 27507097", "conditions": "ITC; read-out: KD of KAR1 to ShHTL3; cited from earlier work"}, "[6]": {"system": "Striga", "parameters": "method as in doi:10.1016/j.plantsci.2009.06.007, PMID 26228149", "conditions": "cited from earlier work"}, "[7]": {"target": "ShHTL7 L124F/T190F/C194F (Striga hermonthica, UniProt A0A0M3PNA2, C194F/L124F/T190F)", "sequence (A0A0M3PNA2 whole entry L124F/T190F/C194F)": "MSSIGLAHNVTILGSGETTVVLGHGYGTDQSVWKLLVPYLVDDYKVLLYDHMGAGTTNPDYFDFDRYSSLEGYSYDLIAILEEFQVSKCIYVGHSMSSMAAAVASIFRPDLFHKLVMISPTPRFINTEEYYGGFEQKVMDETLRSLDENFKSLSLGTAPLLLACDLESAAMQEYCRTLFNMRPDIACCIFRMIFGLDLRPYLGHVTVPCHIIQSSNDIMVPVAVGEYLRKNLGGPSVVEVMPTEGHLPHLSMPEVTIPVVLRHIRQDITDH", "assay": "ITC binding to ShHTL7 triple mutation", "conditions": "3 mM KAR1 into 150 μM mutant", "description": "(§8) Supplementary Figure 8. Activity measurements of ShHTL7 mutants. (a-b), Binding analyses of the T190F/C194F double mutation (a) and L124F/T190F/C194F triple mutation (b) of ShHTL7 with KAR1 by ITC (shown in black). The ITC assays were performed by adding 3 mM KAR1 to 150 μM ShHTL7 mutants in the same manner as in Supplementary Figure 3. Results of titrating buffer to 150 μM ShHTL7 mutants are shown in red. The upper panel for each […]\n(§9) injection (black squares). (c) YLG hydrolytic activity of ShHTL7 and its mutants. As described"}, "[8]": {"target": "ShHTL7 T190F/C194F (Striga hermonthica, UniProt A0A0M3PNA2, C194F/T190F)", "sequence (A0A0M3PNA2 whole entry T190F/C194F)": "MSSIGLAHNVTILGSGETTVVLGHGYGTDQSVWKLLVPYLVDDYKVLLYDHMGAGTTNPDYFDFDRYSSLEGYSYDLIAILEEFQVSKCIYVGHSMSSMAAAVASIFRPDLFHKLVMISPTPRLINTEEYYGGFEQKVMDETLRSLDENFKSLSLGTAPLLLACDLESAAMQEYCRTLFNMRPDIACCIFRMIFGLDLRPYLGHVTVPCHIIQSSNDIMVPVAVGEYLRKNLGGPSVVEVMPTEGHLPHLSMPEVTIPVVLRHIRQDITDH", "assay": "ITC binding to ShHTL7 double mutation", "conditions": "3 mM KAR1 into 150 μM mutant", "description": "as §8, §9"}, "[9]": {"target": "ShHTL1 (Striga hermonthica, UniProt A0A0M4AV81)", "sequence (A0A0M4AV81 entry or part of it)": "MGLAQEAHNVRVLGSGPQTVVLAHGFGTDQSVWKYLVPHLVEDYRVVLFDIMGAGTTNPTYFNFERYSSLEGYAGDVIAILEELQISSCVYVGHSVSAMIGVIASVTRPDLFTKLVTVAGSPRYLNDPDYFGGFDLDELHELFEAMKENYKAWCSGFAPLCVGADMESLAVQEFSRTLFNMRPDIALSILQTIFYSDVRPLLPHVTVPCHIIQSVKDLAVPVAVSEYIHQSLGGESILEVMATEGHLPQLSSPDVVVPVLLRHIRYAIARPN", "assay": "ITC binding to ShHTL1", "conditions": "3 mM KAR1 into 150 μM protein, 20 °C, means ± SD, n = 3, read-out: dissociation constant (KD) of KAR1 to ShHTL1", "method": "Binding analyses of ShHTLs and ShD14 with KAR1. The ITC assays were performed by adding 3 mM KAR1 to 150 μM ShHTL1 (a), ShHTL4 (b), ShHTL7\nShHTL1 and AtHTL were fitted using the MicroCal origin software with the “one binding site” model."}, "[10]": {"target": "T2, ShHTL7 (Striga hermonthica, UniProt A0A0M3PNA2)", "T2 sequence (A0A0M3PNA2 1-271)": "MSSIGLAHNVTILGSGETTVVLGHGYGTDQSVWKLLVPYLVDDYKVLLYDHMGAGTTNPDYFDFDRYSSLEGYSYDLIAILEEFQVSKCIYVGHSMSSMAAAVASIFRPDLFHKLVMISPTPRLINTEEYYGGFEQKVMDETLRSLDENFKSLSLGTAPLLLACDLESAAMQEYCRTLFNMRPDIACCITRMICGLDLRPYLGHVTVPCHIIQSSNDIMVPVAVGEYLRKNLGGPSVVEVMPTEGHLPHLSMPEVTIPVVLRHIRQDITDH", "assay": "ITC binding to ShHTL7", "conditions": "3 mM KAR1 into 150 μM protein", "description": "as §1, §2, §3, §4, §5, §6, §7"}}}
{"smiles": "Cc1c2ccocc-2oc1=O", "note": "[KAR1, 3-methyl-2H-furo [2,3-c] pyran-2-one]", "values": [{"measurement": "ShHTL1-ShMAX2 interaction in the presence of ligand", "setting": "[1]", "value": "no direct interaction with ShMAX2 in the presence of KAR1"}, {"measurement": "Kd", "setting": "[2]", "value": "129 ± 17", "unit": "µM"}, {"measurement": "ShHTL3-ShMAX2 interaction in the presence of ligand", "setting": "[3]", "value": "no direct interaction with ShMAX2 in the presence of KAR1"}, {"measurement": "KAR1 binding ability of ShD14", "setting": "[4]", "value": "no significant KAR1 binding ability"}, {"measurement": "Kd", "setting": "[5]", "value": "78 ± 3", "unit": "µM"}, {"measurement": "induction of germination of Striga", "setting": "[6]", "value": "fails to induce germination of Striga"}, {"measurement": "KAR1 binding by ShHTL7 L124F/T190F/C194F", "setting": "[7]", "value": "able to bind to KAR1 weakly"}, {"measurement": "KAR1 binding by ShHTL7 T190F/C194F", "setting": "[8]", "value": "able to bind to KAR1 weakly"}, {"measurement": "Kd", "setting": "[9]", "value": "77 ± 12", "unit": "µM"}, {"measurement": "KAR1 binding ability of ShHTL7", "setting": "[10]", "value": "no significant KAR1 binding ability"}]}
